The source of these data is PubChem BioAssay (NCI).

Test systems include HS 578T breast; MOLT-4 leukemia; EKVX NSCLC; ACHN renal; CAKI-1 renal; SK-MEL-5 melanoma; HCT-15 colon; OVCAR-3 ovarian; NCI-H460 lung; SK-MEL-2 melanoma.
Assay in all cases: growth of human tumour cells (NCI), 48 h

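1) Cells in 96-well plates. 2) Compound, 48 h, 5 concentrations. 3) Linear interpolation between surrounding doses. 4) Unreached endpoint = highest concentration. The concentration for 50% growth inhibition is given as GI50. At the TGI there is no net growth.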

Regarding `CCCCn1c(=O)c(/C=C/C(=O)/C=C/c2ccc(O)c(OC)c2)cc2ccc(Cl)cc21`, the GI50 in the assay with HS 578T breast is 3.18 µM; in the assay on MOLT-4 leukemia, 2.17 µM; with EKVX NSCLC, 2.18 µM; in the assay on ACHN renal, 1.6 µM; in the assay on CAKI-1 renal, 2.16 µM; with SK-MEL-5 melanoma, 1.69 µM. For the same molecule, the GI50 in the assay on HCT-15 colon was 1.9 µM; in the assay on OVCAR-3 ovarian it was 1.7 µM; in the assay with NCI-H460 lung, 1.96 µM; in the assay on SK-MEL-2 melanoma, 2.67 µM. Also, the TGI in the assay with HS 578T breast turned out to be 14.8 µM; with MOLT-4 leukemia, 16.3 µM; in the assay with EKVX NSCLC, 4.58 µM; in the assay with ACHN renal it was 2.95 µM; in the assay with CAKI-1 renal, 3.91 µM; in the assay with SK-MEL-5 melanoma, 3.09 µM. Further, the TGI turned out to be 5.94 µM in the assay with HCT-15 colon, 3.24 µM in the assay with OVCAR-3 ovarian, 4.17 µM in the assay with NCI-H460 lung and 6.32 µM with SK-MEL-2 melanoma.
With `COc1ccc(-n2nc(C)c3c(Nc4ccc(NC(=O)Nc5cc(C(F)(F)F)ccc5F)cc4)ncnc32)cc1`, the GI50 was 2.33 µM with HS 578T breast; 2.69 µM in the assay with MOLT-4 leukemia; 2.25 µM with EKVX NSCLC; 2.92 µM in the assay on ACHN renal; 2.01 µM in the assay on CAKI-1 renal; 1.91 µM in the assay with SK-MEL-5 melanoma. Moreover, the GI50 was 2.3 µM with HCT-15 colon, 2.4 µM in the assay with OVCAR-3 ovarian, 2.89 µM in the assay with NCI-H460 lung and 2.35 µM in the assay on SK-MEL-2 melanoma. In addition, the TGI was found to be 7.11 µM with HS 578T breast; 12.1 µM in the assay with MOLT-4 leukemia; 5.88 µM in the assay with EKVX NSCLC; 42.9 µM in the assay with ACHN renal; 6.87 µM in the assay on CAKI-1 renal; 3.73 µM in the assay on SK-MEL-5 melanoma. For the same molecule, the TGI in the assay on HCT-15 colon came out at 6.31 µM; with OVCAR-3 ovarian, 6.84 µM; with NCI-H460 lung, 8.7 µM; in the assay on SK-MEL-2 melanoma, 4.91 µM.
With `CN1CCN(c2ccc(NC3=C(Cl)C(=O)c4ncccc4C3=O)cc2C(F)(F)F)CC1`, the GI50 in the assay on HS 578T breast is 3.31 µM; in the assay with MOLT-4 leukemia, 0.304 µM; in the assay with EKVX NSCLC, 2.66 µM; with ACHN renal, 1.48 µM; in the assay on CAKI-1 renal it was 1.72 µM; in the assay with SK-MEL-5 melanoma, 3.52 µM. Besides, the GI50 in the assay with HCT-15 colon is 1.39 µM; in the assay on OVCAR-3 ovarian, 0.297 µM; with NCI-H460 lung, 17.4 µM; with SK-MEL-2 melanoma, 3.32 µM. Further, the TGI is 42.3 µM in the assay with HS 578T breast; 2.67 µM in the assay with MOLT-4 leukemia; 8.44 µM in the assay on EKVX NSCLC; 2.8 µM in the assay with ACHN renal; 3.13 µM in the assay with CAKI-1 renal; 13.3 µM with SK-MEL-5 melanoma. The TGI is 3 µM in the assay with HCT-15 colon, 1.11 µM in the assay on OVCAR-3 ovarian, 34.8 µM in the assay on NCI-H460 lung and 8.79 µM in the assay on SK-MEL-2 melanoma.
As to `Cc1ccc2nc(NC(=O)CSC(=S)N3CCN(Cc4ccccc4)CC3)sc2c1`, the GI50 was greater than 100 µM in the assay with HS 578T breast; greater than 100 µM in the assay on MOLT-4 leukemia; greater than 100 µM in the assay with EKVX NSCLC; greater than 100 µM in the assay on ACHN renal; greater than 85.8 µM with CAKI-1 renal; 56 µM with SK-MEL-5 melanoma. The GI50 in the assay on HCT-15 colon, in the assay on OVCAR-3 ovarian, in the assay with NCI-H460 lung and in the assay on SK-MEL-2 melanoma was greater than 100 µM throughout. The TGI in the assay with HS 578T breast, in the assay on MOLT-4 leukemia, in the assay on EKVX NSCLC, in the assay on ACHN renal, with CAKI-1 renal and in the assay with SK-MEL-5 melanoma was greater than 100 µM throughout. The TGI in the assay on HCT-15 colon, in the assay with OVCAR-3 ovarian, with NCI-H460 lung and in the assay on SK-MEL-2 melanoma was greater than 100 µM each time.
Take `O=C(O)C1(C(=O)O)CCN(S(=O)(=O)c2ccccc2)CC1`: the TGI with HS 578T breast, with MOLT-4 leukemia, in the assay with EKVX NSCLC, in the assay on ACHN renal, with CAKI-1 renal and with SK-MEL-5 melanoma was greater than 100 µM in each case. The TGI in the assay on HCT-15 colon, in the assay with OVCAR-3 ovarian, in the assay with NCI-H460 lung and in the assay on SK-MEL-2 melanoma was greater than 100 µM each time.
As to `COc1cc(C)c(N(C)C(=O)CN(C)C)cc1Nc1nc(Nc2cccc(F)c2C(N)=O)c2cc[nH]c2n1`, the GI50 is greater than 17.5 µM with HS 578T breast; greater than 21.9 µM in the assay on MOLT-4 leukemia; greater than 25 µM in the assay with EKVX NSCLC; greater than 25 µM in the assay with ACHN renal; greater than 23.9 µM in the assay with CAKI-1 renal; 13.3 µM with SK-MEL-5 melanoma. The GI50 was greater than 25 µM in the assay on HCT-15 colon, greater than 25 µM in the assay on OVCAR-3 ovarian, greater than 23.2 µM in the assay with NCI-H460 lung and greater than 25 µM with SK-MEL-2 melanoma. Moreover, the TGI in the assay with HS 578T breast, with MOLT-4 leukemia, in the assay on EKVX NSCLC, with ACHN renal, with CAKI-1 renal and in the assay on SK-MEL-5 melanoma was greater than 25 µM in each case. Besides, the TGI with HCT-15 colon, in the assay with OVCAR-3 ovarian, with NCI-H460 lung and with SK-MEL-2 melanoma was greater than 25 µM throughout.
For the molecule `C=C(C)[C@@H]1CC[C@]2(C)[C@H](CC=C3[C@@H]4CC(C)(C)CC[C@]4(C(=O)OC)CC[C@]32C)[C@@]1(C)CC/C(N)=N/O`, the GI50 in the assay on HS 578T breast was 2.02 µM; in the assay on MOLT-4 leukemia it was 2.09 µM; with EKVX NSCLC, 2.11 µM; in the assay on ACHN renal, 2.05 µM; with CAKI-1 renal, 2.4 µM; with SK-MEL-5 melanoma it was 1.77 µM. Further, the GI50 in the assay on HCT-15 colon is 2.05 µM; in the assay with OVCAR-3 ovarian it was 1.67 µM; in the assay with NCI-H460 lung, 1.89 µM; in the assay on SK-MEL-2 melanoma it was 1.78 µM. For the same molecule, the TGI with HS 578T breast was 4.97 µM; in the assay on MOLT-4 leukemia it was 5.25 µM; with EKVX NSCLC it was 6.8 µM; in the assay with ACHN renal, 5.81 µM; in the assay with CAKI-1 renal, 15.1 µM; in the assay on SK-MEL-5 melanoma, 3.23 µM. Further, the TGI was determined as 5.6 µM with HCT-15 colon, 3.18 µM in the assay on OVCAR-3 ovarian, 4.03 µM in the assay with NCI-H460 lung and 3.95 µM with SK-MEL-2 melanoma.
